Consider 3 compounds from US20160106743A1, “TOPOISOMERASE II POISONS AND METHODS OF MAKING AND USING SAME” (THE UNIVERSITY OF ROCHESTER, priority 2014, published 2016).

Data set [1] has as its target T1, Human Top2-α (Homo sapiens, UniProt P11388).
T1 construct: purchased Topogen, Inc; Port Orange Fla
Put plainly: Human Top2-α decatenation of kinetoplastid DNA (gel electrophoresis, densitometry). As to conditions: increasing concentrations of Compound 1, 37° C. for 15 min, FIG. 1. In kind it is biochemical. On the procedure:
Human Top2-α decatenation of kinetoplastid DNA (kDNA) was visualized by gel electrophoresis. Human Top2-α (Topogen, Inc; Port Orange Fla.) was added to 0.2 μg of kDNA in the presence of 1% DMSO (vehicle control) without or with increasing concentrations of Compound 1. Reactions were incubated at 37° C. for 15 min and terminated by addition of an SDS buffer. Samples were resolved by 1% agarose 1×TAE gel electrophoresis and stained with ethidium bromide. Decatenated versus intact kDNA species were quantified by densitometry (FIG. 1).

Data set [2] deals with Saccharomyces cerevisiae strain BY4741 overexpressing yeast TOP2. The data set is described as follows: Yeast dilution growth on agar media, cells overexpressing TOP2. The data set is classed as cell-based. As to conditions: Compound 1 10 μM in 0.1% DMSO, growth recorded after 48 h, FIG. 3. As for the experimental part: (§1) Three-fold dilutions of Saccharomyces cerevisiae strain BY4741 overexpressing yeast TOP1, TOP2, or TOP3 from plasmid vectors were plated on agar media containing either 0.1% DMSO or Compound 1 (10 μM) in 0.1% DMSO (FIG. 3). Growth was recorded after 48 h. TOP1, TOP2, and TOP3 overexpressing cells grew at approximately the same rate as cells carrying an empty vector (top panel). […] However, Compound 1 was toxic to cells overexpressing TOP2. This phenomenon is characteristic of TOP2 poisons that stabilize toxic Top2cc adducts.

In data set [3] the test system is Saccharomyces cerevisiae strain BY4741 overexpressing yeast TOP1. Put plainly: Yeast dilution growth on agar media, cells overexpressing TOP1. As to conditions: Compound 1 10 μM in 0.1% DMSO, growth recorded after 48 h, FIG. 3. The data set is classed as cell-based. As for the experimental part:
as §1

Data set [4] has as its system Saccharomyces cerevisiae strain BY4741 overexpressing yeast TOP3. Put plainly: Yeast dilution growth on agar media, cells overexpressing TOP3. The data set is classed as cell-based. As to conditions: Compound 1 10 μM in 0.1% DMSO, growth recorded after 48 h, FIG. 3. On the procedure:
as §1

The subject of data set [5] is Saccharomyces cerevisiae strain BY4741 carrying an empty vector. Put plainly: Yeast dilution growth on agar media, cells carrying an empty vector. In kind it is cell-based. As to conditions: Compound 1 10 μM in 0.1% DMSO, growth recorded after 48 h, FIG. 3. As for the experimental part: as §1
Data set [6] concerns yeast cells expressing native levels of Top2. The data set is described as follows: Yeast culture growth rate, native levels of TOP2 (empty expression vector). The data set is classed as cell-based. As to conditions: FIG. 4. From the text:
(§2) Yeast cultures overexpressing native TOP2 (TOP2) or an empty expression vector (empty) were exposed to increasing concentrations of Compound 1 (FIG. 4). […] This is an unusual property for a TOP2 poison, most or all of which are lethal at high concentrations.

For data set [7], the system named is yeast cells overexpressing TOP2. The data set is described as follows: Yeast culture growth rate, TOP2 overexpressed from a plasmid vector. In kind it is cell-based. As to conditions: increasing concentrations of Compound 1, FIG. 4.
Text: as §2

In data set [8] the target is T2, purified yeast Top2 (Saccharomyces cerevisiae, UniProt P06786).
T2 sequence (P06786 1-1428): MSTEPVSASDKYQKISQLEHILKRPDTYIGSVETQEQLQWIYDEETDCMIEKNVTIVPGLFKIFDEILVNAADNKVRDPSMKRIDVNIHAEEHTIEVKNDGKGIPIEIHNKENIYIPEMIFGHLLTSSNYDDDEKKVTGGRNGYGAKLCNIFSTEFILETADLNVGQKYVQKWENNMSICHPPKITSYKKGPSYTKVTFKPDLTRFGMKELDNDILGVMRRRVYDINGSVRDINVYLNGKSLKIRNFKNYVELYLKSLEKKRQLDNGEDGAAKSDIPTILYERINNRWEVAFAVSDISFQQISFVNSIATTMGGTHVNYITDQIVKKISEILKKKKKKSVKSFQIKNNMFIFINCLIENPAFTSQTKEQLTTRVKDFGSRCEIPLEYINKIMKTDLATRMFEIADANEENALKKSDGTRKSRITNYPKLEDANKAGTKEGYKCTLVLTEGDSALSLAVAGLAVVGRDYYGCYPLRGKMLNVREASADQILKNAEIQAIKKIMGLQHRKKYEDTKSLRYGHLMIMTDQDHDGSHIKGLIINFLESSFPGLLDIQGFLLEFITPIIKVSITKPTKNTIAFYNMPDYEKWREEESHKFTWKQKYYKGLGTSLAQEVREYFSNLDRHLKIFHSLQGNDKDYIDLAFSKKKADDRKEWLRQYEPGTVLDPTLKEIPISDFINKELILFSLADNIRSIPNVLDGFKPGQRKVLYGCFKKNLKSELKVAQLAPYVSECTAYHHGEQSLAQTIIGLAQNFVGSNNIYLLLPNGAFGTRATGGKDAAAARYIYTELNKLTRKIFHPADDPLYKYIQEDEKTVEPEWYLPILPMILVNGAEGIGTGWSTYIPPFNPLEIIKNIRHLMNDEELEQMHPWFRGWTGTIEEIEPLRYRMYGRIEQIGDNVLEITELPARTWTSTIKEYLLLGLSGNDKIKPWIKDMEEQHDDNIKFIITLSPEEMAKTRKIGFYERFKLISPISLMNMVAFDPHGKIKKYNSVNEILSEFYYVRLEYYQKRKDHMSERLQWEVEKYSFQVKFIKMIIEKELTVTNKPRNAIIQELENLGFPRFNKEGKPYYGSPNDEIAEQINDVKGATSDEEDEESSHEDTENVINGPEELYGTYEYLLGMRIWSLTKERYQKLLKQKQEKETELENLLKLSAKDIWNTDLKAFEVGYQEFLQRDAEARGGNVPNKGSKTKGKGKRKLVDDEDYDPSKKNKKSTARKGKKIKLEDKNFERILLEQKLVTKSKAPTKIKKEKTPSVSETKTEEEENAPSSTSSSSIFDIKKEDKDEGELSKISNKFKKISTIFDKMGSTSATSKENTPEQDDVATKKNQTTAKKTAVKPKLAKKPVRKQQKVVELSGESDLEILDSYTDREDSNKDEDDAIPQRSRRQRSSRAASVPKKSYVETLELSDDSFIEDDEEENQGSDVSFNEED
The data set is described as follows: Plasmid DNA (pUC18) cleavage by purified yeast Top2 (double strand breaks, linear form). The data set is classed as biochemical. As to conditions: 10 μM etoposide or 1, 10 or 100 μM Compound 1, 150 ng purified yeast Top2, FIG. 5. On the procedure:
Supercoiled (sc) plasmid DNA (pUC18) was exposed to 10 μM etoposide or 1, 10 or 100 μM Compound 1 in the presence and absence of 150 ng of purified yeast Top2 as described (Nitiss et al. (2012) Curr Protoc. Pharmacol. Chapter 3: Unit 3.3) (FIG. 5). TOP2 poisons induce Top2cc adducts containing double strand breaks. Double strand DNA breaks convert supercoiled (sc) pUC18 to a linear (lin) form.

In data set [9] the test system is Human HT1080 fibrosarcoma cells. Put plainly: HT1080 cell viability, alone and combined with doxorubicin, vinblastine or etoposide. The data set is classed as cell-based. Further details: viability of HT1080 cells, compound alone: dose or concentration left out as unconfirmed. As for the experimental part:
Human HT1080 fibrosarcoma cells were exposed for 48 hrs to DMSO (vehicle control), 0.5 μM doxorubicin, 0.5 nM vinblastine, and/or Compound 1 at the indicated concentrations (FIGS. 6A-6C, respectively). Viable cells remaining on the plates were quantified after 48 hrs. […] (FIG. 6B) Compound 1 enhances doxorubicin toxicity at concentrations as low as 2.5 μM. 10 μM Compound 1 enhances doxorubicin cytotoxicity several fold. […] The vinblastine results are inconsistent with Compound 1 acting by inhibition of multidrug resistance pumps, which, when inhibited, increase the toxicity of multiple cytotoxic drugs including vinblastine. […] Average values and standard deviation of the means are plotted. P-values determined by student t-test are shown for doxorubicin enhancement (B). DMSO (A) and doxorubicin (B) data were based on the average of 6 biological replicates. Vinblastine data (C) was based on three biological replicates.

For data set [10], the system named is Noncancer MJT cells (primary foreskin fibroblasts). The data set is described as follows: MJT noncancer cell viability with and without doxorubicin. The data set is classed as cell-based, human.
Data set [11] deals with puc118-based plasmid DNA. The data set is described as follows: Topoisomerase I (Top1) DNA unwinding assay for intercalation. As to conditions: 15 min at 25° C., then 1 h with added Top1, FIG. 2.
Text: Samples were resolved by electrophoresis through 1% agarose 1×TAE gel and species *, **, and *** quantitated by densitometry (FIG. 2). Top1 alone (Lane 2) converts the DNA to a relaxed form (**) and some residual intermediate relaxed species (***).

Entries after “also recorded” stand apart in the source; their conditions may differ.

T1 sequence (P11388 whole entry): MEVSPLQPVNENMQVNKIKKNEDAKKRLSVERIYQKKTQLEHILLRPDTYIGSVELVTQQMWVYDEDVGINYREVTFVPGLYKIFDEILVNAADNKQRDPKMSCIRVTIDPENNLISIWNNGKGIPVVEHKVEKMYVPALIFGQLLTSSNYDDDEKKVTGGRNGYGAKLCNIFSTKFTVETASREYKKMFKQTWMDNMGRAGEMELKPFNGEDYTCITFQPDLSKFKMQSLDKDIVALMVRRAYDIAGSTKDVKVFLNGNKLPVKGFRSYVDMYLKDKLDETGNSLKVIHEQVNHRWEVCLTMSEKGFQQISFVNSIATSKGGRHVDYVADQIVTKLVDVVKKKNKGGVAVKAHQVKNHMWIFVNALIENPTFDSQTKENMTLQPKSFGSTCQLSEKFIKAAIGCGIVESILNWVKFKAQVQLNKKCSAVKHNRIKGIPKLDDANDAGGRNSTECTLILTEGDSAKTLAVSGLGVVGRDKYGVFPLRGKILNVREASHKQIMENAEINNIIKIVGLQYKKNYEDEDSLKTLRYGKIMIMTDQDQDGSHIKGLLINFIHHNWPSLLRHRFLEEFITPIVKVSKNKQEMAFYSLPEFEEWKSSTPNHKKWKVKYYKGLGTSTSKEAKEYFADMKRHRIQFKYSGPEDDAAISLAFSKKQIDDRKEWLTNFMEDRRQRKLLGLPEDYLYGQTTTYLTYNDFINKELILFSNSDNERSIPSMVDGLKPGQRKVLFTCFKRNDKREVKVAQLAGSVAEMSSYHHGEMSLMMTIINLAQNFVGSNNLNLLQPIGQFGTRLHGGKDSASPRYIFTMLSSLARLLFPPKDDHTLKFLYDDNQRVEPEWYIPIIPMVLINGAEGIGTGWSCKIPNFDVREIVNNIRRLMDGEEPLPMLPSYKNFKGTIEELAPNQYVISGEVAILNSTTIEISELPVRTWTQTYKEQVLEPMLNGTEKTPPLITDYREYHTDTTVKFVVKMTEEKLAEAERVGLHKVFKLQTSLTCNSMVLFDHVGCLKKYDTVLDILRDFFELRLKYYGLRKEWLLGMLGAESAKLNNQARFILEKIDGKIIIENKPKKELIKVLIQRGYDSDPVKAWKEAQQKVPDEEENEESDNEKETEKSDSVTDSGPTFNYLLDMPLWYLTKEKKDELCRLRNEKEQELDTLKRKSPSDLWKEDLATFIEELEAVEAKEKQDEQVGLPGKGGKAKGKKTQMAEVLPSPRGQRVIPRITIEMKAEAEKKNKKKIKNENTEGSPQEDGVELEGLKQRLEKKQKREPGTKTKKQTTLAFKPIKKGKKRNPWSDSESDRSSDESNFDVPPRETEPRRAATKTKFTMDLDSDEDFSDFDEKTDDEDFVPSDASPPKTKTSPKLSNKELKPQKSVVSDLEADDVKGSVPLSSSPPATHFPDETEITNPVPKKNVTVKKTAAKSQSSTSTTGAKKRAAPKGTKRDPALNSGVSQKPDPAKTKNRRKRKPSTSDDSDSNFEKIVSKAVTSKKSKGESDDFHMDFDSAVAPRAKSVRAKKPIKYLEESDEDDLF

On to `c1ccc2nc3c(nc2c1)[nH]c1ccccc13` [Compound 1, 6H-indolo[2,3-b]quinoxaline], for which the “inhibition of decatenation of kinetoplastid DNA by human Top2-α” value in data set [1] is “inhibits human Top2-α at Micromolar Concentrations; also recorded: inhibited by increasing concentrations”. In addition, in data set [2], the “growth of cells overexpressing TOP2 on agar” value is reported as “toxic”. In addition, in [3], the “growth of cells overexpressing TOP1 on agar” value is listed as “no effect on the growth”. The “growth of cells overexpressing TOP3 on agar” value in data set [4] is reported as “no effect on the growth”. Further, in [5], the “growth of cells carrying an empty vector on agar” value is “no effect on the growth”. Moreover, in data set [6] (concentrations as high as 100 μM), the “growth in cells expressing native levels of Top2 at high concentrations” value is listed as “cells continue to thrive”. In data set [6] (concentrations below 10 μM), the “growth rate in cells expressing native levels of Top2” value was “partial dose-dependent inhibition of growth rates”. Also, the “growth in cells overexpressing TOP2 from a plasmid vector” value in data set [7] is listed as “almost completely arrests growth”. The “formation of the linear form of pUC18 (stable double strand breaks, Top2cc adducts)” value in data set [8] is “induced yeast Top2 to form the linear form of pUC18”. Also, the “enhancement of doxorubicin cytotoxicity” value in [9] (10 μM Compound 1, 0.5 μM doxorubicin, 48 hrs, FIG. 6B) is “several fold”. Besides, the “viability of HT1080 cells, compound alone” value in [9] (48 hrs, DMSO vehicle, FIG. 6A) is given as “no effect on the viability”. Moreover, the “lowest concentration enhancing doxorubicin toxicity” value in data set [9] (48 hrs, with 0.5 μM doxorubicin, FIG. 6B) worked out at 2.5 µM. The “enhancement of HT1080 cell killing at multiple doxorubicin concentrations” value in data set [9] (various concentrations of doxorubicin and Compound 1, FIG. 6D) is listed as “dose-dependent enhancement”. Besides, the “enhancement of vinblastine toxicity” value in data set [9] (with 0.5 nM vinblastine, 48 hrs, FIG. 6C) is on record as “does not enhance vinblastine toxicity”. The “toxicity to MJT cells, compound alone” value in [10] (performed as in Example 6, FIG. 7) was “not itself toxic”. Moreover, the “enhancement of doxorubicin toxicity in MJT cells” value in [10] (various concentrations of doxorubicin with and without Compound 1, FIG. 7) is given as “nor does it enhance the toxicity of doxorubicin”. The “unwinding of plasmid DNA in presence of Top1 (intercalation)” value (from here on “unwinding of plasmid DNA”) in data set [11] was “do not unwind the DNA”.

For the compound `COc1cc([C@@H]2c3cc4c(cc3[C@@H](O[C@@H]3O[C@@H]5CO[C@@H](C)O[C@H]5[C@H](O)[C@H]3O)[C@H]3COC(=O)[C@H]23)OCO4)cc(OC)c1O` [etoposide, reference compound], the “formation of the linear form of pUC18 (stable double strand breaks, Top2cc adducts)” value in data set [8] is “induced yeast Top2 to form the linear form of pUC18”. For the same compound, the “unwinding of plasmid DNA” value in data set [11] is “do not unwind the DNA”.

`COc1cccc2c1C(=O)c1c(O)c3c(c(O)c1C2=O)C[C@@](O)(C(=O)CO)C[C@@H]3O[C@H]1C[C@H](N)[C@H](O)[C@H](C)O1` [doxorubicin]: the “unwinding of plasmid DNA” value in data set [11] was “DNA is unwound”.
